{"source": "patent US20100055179A1", "about": "“Composition of and Method for Preparing Orally Disintegrating Tablets Containing a High Dose of Pharmaceutically Active Ingredients” (MALLINCKRODT INC., priority 2006, published 2010)", "assay_type_in_all_cases": "physicochemical", "key": {"[1]": {"assay": "In vitro disintegration test (USP Test No. 701)", "protocol": "(3) In vitro disintegration test-The disintegration time of the tablets was determined according to U.S. Pharmacopeia, Test No. 701."}, "[2]": {"assay": "Wetting test (simulated in vivo disintegration time)", "protocol": "(4) Wetting Test-One Whatman filter disc (21 mm in diameter) was placed in each well of a Corning 12-well polystyrene microplate (22 mm in diameter). One and a half […] of Sensient Blue #1 dye solution (similar to in vivo conditions-tongue surface) was then added into each well. An ODT tablet was carefully placed on the surface of the wet paper disc in each well using a pair of forceps, tablet face flat on the filter paper. Finally, the total wetting time was recorded as the time required for the blue dye solution to cover the surface of the tablet as simulated in vivo disintegration time."}, "[3]": {"assay": "Friability test (USP <1216>)", "protocol": "(2) Friability test-The friability test method was performed by a Varian Friabilator according to the USP tablet friability method described in <1216> Tablet Friability of the General chapters describing General Test Assays."}, "[4]": {"assay": "Hardness test (tablet crushing load, Varian VK-200)", "protocol": "(1) Hardness test-The ODT tablet crushing load, which is the force (kilopond, kP) required to break a tablet into halves by compression in the diametral direction, was measured with a hardness tester (Varian Hardness Tester, VK-200)."}, "[5]": {"details": "0.3% (w/w) APAP as COMPAP with Formulation A granules, Example 4"}, "[6]": {"details": "0.3% (w/w) regular APAP blended with Formulation A granules, 400 mg tablet, Example 2"}, "[7]": {"details": "0.3% (w/w) regular APAP wet-granulated with Formulation A, Example 3"}, "[8]": {"details": "1.0% (w/w) APAP as COMPAP with Formulation A granules, Example 4"}, "[9]": {"details": "1.0% (w/w) regular APAP blended with Formulation A granules, 400 mg tablet, Example 2"}, "[10]": {"details": "1.0% (w/w) regular APAP wet-granulated with Formulation A, Example 3"}, "[11]": {"details": "10.0% (w/w) APAP as COMPAP with Formulation A granules, Example 4"}, "[12]": {"details": "10.0% (w/w) regular APAP blended with Formulation A granules, 400 mg tablet, Example 2"}, "[13]": {"details": "10.0% (w/w) regular APAP wet-granulated with Formulation A, Example 3"}, "[14]": {"details": "15.0% (w/w) regular APAP blended with Formulation A granules, 400 mg tablet, Example 2"}, "[15]": {"details": "20.0% (w/w) APAP as COMPAP with Formulation A granules, Example 4"}, "[16]": {"details": "20.0% (w/w) regular APAP wet-granulated with Formulation A, Example 3"}, "[17]": {"details": "30.0% (w/w) APAP as COMPAP with Formulation A granules, Example 4"}, "[18]": {"details": "30.0% (w/w) regular APAP wet-granulated with Formulation A, Example 3"}, "[19]": {"details": "40.0% (w/w) APAP as COMPAP with Formulation A granules, Example 4"}, "[20]": {"details": "50.0% (w/w) APAP as COMPAP with Formulation A granules, Example 4"}}, "data": [{"smiles": "CC(=O)Nc1ccc(O)cc1", "note": "[APAP, Acetaminophen]", "values": [{"measurement": "USP-DIT (in vitro disintegration time, USP method)", "setting": "[1]; [5]", "result": 26, "unit": "s"}, {"measurement": "USP-DIT (in vitro disintegration time, USP method)", "setting": "[1]; [6]", "result": 18, "unit": "s"}, {"measurement": "USP-DIT (in vitro disintegration time, USP method)", "setting": "[1]; [7]", "result": 12, "unit": "s"}, {"measurement": "USP-DIT (in vitro disintegration time, USP method)", "setting": "[1]; [8]", "result": 15, "unit": "s"}, {"measurement": "USP-DIT (in vitro disintegration time, USP method)", "setting": "[1]; [9]", "result": 20, "unit": "s"}, {"measurement": "USP-DIT (in vitro disintegration time, USP method)", "setting": "[1]; [10]", "result": 12, "unit": "s"}, {"measurement": "USP-DIT (in vitro disintegration time, USP method)", "setting": "[1]; [11]", "result": 11, "unit": "s"}, {"measurement": "USP-DIT (in vitro disintegration time, USP method)", "setting": "[1]; [12]", "result": 9, "unit": "s"}, {"measurement": "USP-DIT (in vitro disintegration time, USP method)", "setting": "[1]; [13]", "result": 18, "unit": "s"}, {"measurement": "USP-DIT (in vitro disintegration time, USP method)", "setting": "[1]; [14]", "result": 10, "unit": "s"}, {"measurement": "USP-DIT (in vitro disintegration time, USP method)", "setting": "[1]; [15]", "result": 11, "unit": "s"}, {"measurement": "USP-DIT (in vitro disintegration time, USP method)", "setting": "[1]; [16]", "result": 19, "unit": "s"}, {"measurement": "USP-DIT (in vitro disintegration time, USP method)", "setting": "[1]; [17]", "result": 16, "unit": "s"}, {"measurement": "USP-DIT (in vitro disintegration time, USP method)", "setting": "[1]; [18]", "result": 28, "unit": "s"}, {"measurement": "USP-DIT (in vitro disintegration time, USP method)", "setting": "[1]; [19]", "result": 16, "unit": "s"}, {"measurement": "USP-DIT (in vitro disintegration time, USP method)", "setting": "[1]; [20]", "result": 16, "unit": "s"}, {"measurement": "Wetting time", "setting": "[2]; [5]", "result": 15, "unit": "s"}, {"measurement": "Wetting time", "setting": "[2]; [6]", "result": 12, "unit": "s"}, {"measurement": "Wetting time", "setting": "[2]; [7]", "result": 18, "unit": "s"}, {"measurement": "Wetting time", "setting": "[2]; [8]", "result": 16, "unit": "s"}, {"measurement": "Wetting time", "setting": "[2]; [9]", "result": 11, "unit": "s"}, {"measurement": "Wetting time", "setting": "[2]; [10]", "result": 21, "unit": "s"}, {"measurement": "Wetting time", "setting": "[2]; [11]", "result": 22, "unit": "s"}, {"measurement": "Wetting time", "setting": "[2]; [12]", "result": 10, "unit": "s"}, {"measurement": "Wetting time", "setting": "[2]; [13]", "result": 30, "unit": "s"}, {"measurement": "Wetting time", "setting": "[2]; [14]", "result": 9, "unit": "s"}, {"measurement": "Wetting time", "setting": "[2]; [15]", "result": 30, "unit": "s"}, {"measurement": "Wetting time", "setting": "[2]; [16]", "result": 25, "unit": "s"}, {"measurement": "Wetting time", "setting": "[2]; [17]", "result": 45, "unit": "s"}, {"measurement": "Wetting time", "setting": "[2]; [18]", "result": 21, "unit": "s"}, {"measurement": "Wetting time", "setting": "[2]; [19]", "result": 65, "unit": "s"}, {"measurement": "Wetting time", "setting": "[2]; [20]", "result": 117, "unit": "s"}, {"measurement": "Friability", "setting": "[3]; [5]", "result": 0.5, "unit": "%"}, {"measurement": "Friability", "setting": "[3]; [6]", "result": 0.02, "unit": "%"}, {"measurement": "Friability", "setting": "[3]; [7]", "result": 0.3, "unit": "%"}, {"measurement": "Friability", "setting": "[3]; [8]", "result": 0.3, "unit": "%"}, {"measurement": "Friability", "setting": "[3]; [9]", "result": 0.03, "unit": "%"}, {"measurement": "Friability", "setting": "[3]; [10]", "result": 0.2, "unit": "%"}, {"measurement": "Friability", "setting": "[3]; [11]", "result": 0.5, "unit": "%"}, {"measurement": "Friability", "setting": "[3]; [12]", "result": 0.46, "unit": "%"}, {"measurement": "Friability", "setting": "[3]; [13]", "result": 0.0, "unit": "%"}, {"measurement": "Friability", "setting": "[3]; [14]", "result": 0.08, "unit": "%"}, {"measurement": "Friability", "setting": "[3]; [15]", "result": 0.0, "unit": "%"}, {"measurement": "Friability", "setting": "[3]; [16]", "result": 0.2, "unit": "%"}, {"measurement": "Friability", "setting": "[3]; [17]", "result": 0.5, "unit": "%"}, {"measurement": "Friability", "setting": "[3]; [18]", "result": 0.0, "unit": "%"}, {"measurement": "Friability", "setting": "[3]; [19]", "result": 0.0, "unit": "%"}, {"measurement": "Friability", "setting": "[3]; [20]", "result": 0.3, "unit": "%"}, {"measurement": "Hardness", "setting": "[4]; [5]", "result": 7.9, "unit": "kP"}, {"measurement": "Hardness", "setting": "[4]; [6]", "result": 8.1, "unit": "kP"}, {"measurement": "Hardness", "setting": "[4]; [7]", "result": 8.1, "unit": "kP"}, {"measurement": "Hardness", "setting": "[4]; [8]", "result": 7.6, "unit": "kP"}, {"measurement": "Hardness", "setting": "[4]; [9]", "result": 9.3, "unit": "kP"}, {"measurement": "Hardness", "setting": "[4]; [10]", "result": 8.6, "unit": "kP"}, {"measurement": "Hardness", "setting": "[4]; [11]", "result": 8.0, "unit": "kP"}, {"measurement": "Hardness", "setting": "[4]; [12]", "result": 6.5, "unit": "kP"}, {"measurement": "Hardness", "setting": "[4]; [13]", "result": 8.5, "unit": "kP"}, {"measurement": "Hardness", "setting": "[4]; [14]", "result": 6.8, "unit": "kP"}, {"measurement": "Hardness", "setting": "[4]; [15]", "result": 9.1, "unit": "kP"}, {"measurement": "Hardness", "setting": "[4]; [16]", "result": 7.5, "unit": "kP"}, {"measurement": "Hardness", "setting": "[4]; [17]", "result": 7.2, "unit": "kP"}, {"measurement": "Hardness", "setting": "[4]; [18]", "result": 7.9, "unit": "kP"}, {"measurement": "Hardness", "setting": "[4]; [19]", "result": 5.7, "unit": "kP"}, {"measurement": "Hardness", "setting": "[4]; [20]", "result": 4.2, "unit": "kP"}]}]}
